Measurements reported in paper PMC7217877, “N-AS-triggered SPMs are direct regulators of microglia in a model of Alzheimer’s disease” (Nature Communications, 2020).
Where “and” joins values, the source holds several entries; their conditions need not be identical. Equal values may be shown once.

Legend:
[1] = biological target: T1, COX2 of WT and APP/PS1 mice (Mus musculus, UniProt Q05769); assay: in vivo COX2 acetylation in microglia and neuron after oral [14C] N-AS (Supplementary Fig 4d)
T1 construct: from tissue; host or cells: microglia and neurons isolated from brain of 9-months-old WT and APP/PS1 mice
T1 sequence (Q05769 18-604): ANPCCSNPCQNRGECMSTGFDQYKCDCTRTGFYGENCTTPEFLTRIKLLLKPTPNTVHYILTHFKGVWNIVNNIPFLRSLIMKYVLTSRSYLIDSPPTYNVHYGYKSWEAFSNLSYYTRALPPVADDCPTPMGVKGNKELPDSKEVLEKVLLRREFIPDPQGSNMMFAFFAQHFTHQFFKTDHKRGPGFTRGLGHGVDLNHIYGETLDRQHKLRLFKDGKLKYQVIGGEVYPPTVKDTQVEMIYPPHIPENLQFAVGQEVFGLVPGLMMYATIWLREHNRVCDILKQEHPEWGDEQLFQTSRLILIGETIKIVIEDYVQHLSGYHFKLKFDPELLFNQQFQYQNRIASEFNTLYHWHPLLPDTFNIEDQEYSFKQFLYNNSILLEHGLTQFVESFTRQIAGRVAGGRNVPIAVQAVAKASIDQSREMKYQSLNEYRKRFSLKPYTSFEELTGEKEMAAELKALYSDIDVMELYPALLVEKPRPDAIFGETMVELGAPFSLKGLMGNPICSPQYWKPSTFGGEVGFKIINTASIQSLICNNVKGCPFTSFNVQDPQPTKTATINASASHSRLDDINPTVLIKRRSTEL
Experimental: Acetylation assays were performed according to previously described procedures with minor modifications. […] To confirm the N-AS-mediated COX2 acetylation, 10 μg COX2 (WT or mutants) was used incubated with [^14C] N-AS (2 μCi, ARC UK Ltd, ARC-1024) at 37 °C for 2 h. [^14C] aspirin (2 μCi, ARC UK Ltd, ARC-0473) was conducted as the positive control. The reactions were terminated by placing the reaction tubes in ice for 5 min. To evaluate in vivo neuronal and microglial COX2 acetylation, 10 μCi [^14C] N-AS was orally administrated to 9-months-old WT and APP/PS1 mice. After 1 h, neuron and microglia were isolated and sonicated in culture media. To immunoprecipitate acetylated COX2, the sample was incubated with COX2 antibody (Abcam, ab15191) at 4 °C for 24 h and precipitated by adding 50 μl of protein-A sepharose (GE Healthcare). Acetylated COX2 proteins bound to the beads were analyzed using a Tri-Carb 3110TR liquid scintillation counter (Perkin-Elmer).

[2] = tested on: microglia; assay: SphK activity in primary cells; assay type: cell-based, C57BL/6 mice; conditions: Ab 10mM, replicates
Experimental: We confirmed S1P formation through SphK1 enzymatic activity measurements as previously described[11] using a UPLC (Ultra performance liquid chromatography) system (Waters). […] After pre-incubation, 1 mM ATP (Amresco, 0220) was added the mixture, and it was incubated at 37 °C for 1 h. The […] reactions were stopped by adding 53 μl of ethanol, and centrifuged at 15,493×g for 5 min. Thirty microliter of the supernatant was then transferred to a sampling glass vial and 5 μl was applied onto a UPLC system for analysis. S1P formation was followed as phosphorylation of (7-nitro-2-1,3-benzoxadiazol-4-yl)-d-erythro (NBD)-sphingosine (Avanti Polar Lipids) to NBD-S1P. Quantification was achieved by comparison with NBD-S1P (Avanti Polar Lipids) standards.
To confirm the generation and roles of N-AS in neurons, cells from E18 C57BL/6 mice were prepared as previously described. Cortices were dissected and then dissociated followed by incubation in papain (Worthington) at 37 °C for 15 min. […] Aβ 1–42 (10 μM, 24 h, Invitrogen, 03112) was exposed to neurons and the cells were analyzed for the generation and roles of N-AS. […] The human microglia treated with Aβ 1–42 and/or zileuton was incubated with N-AS (2.5 μM, 2 h, Sigma-Aldrich, 01912), and were analyzed for the generation and roles of N-AS.

| in vivo COX2 acetylation after oral [14C] N-AS (sFig 4d) ([1]; Microglia, WT mice (set to 100)) | in vivo COX2 acetylation after oral [14C] N-AS (sFig 4d) ([1]; Neuron, WT mice (set to 100)) | Molecule | in vivo COX2 acetylation after oral [14C] N-AS (sFig 4d) ([1]; Microglia, APP/PS1 mice, relative to WT = 100, listed as [14C] N-AS) | in vivo COX2 acetylation after oral [14C] N-AS (sFig 4d) ([1]; Neuron, APP/PS1 mice, relative to WT = 100, listed as [14C] N-AS) | [14C] radioreactivity of COX2 from microglia ([1]; oral [14C] N-AS, APP/PS1 vs WT microglia) | [14C] radioreactivity of COX2 from neurons ([1]; oral [14C] N-AS, APP/PS1 vs WT neurons) | SphK activity (Fig 3d) [2] |
| --- | --- | --- | --- | --- | --- | --- | --- |
| 100 | 100 | CCCCCCCCCCCCC/C=C/[C@@H](O)[C@H](CO)NC(C)=O [N-AS, N-((2S,3R,E)-1,3-Dihydroxyoctadec-4-en-2-yl)acetamide] | 223.529 and 255.556 and 247.368 and 238.095 and 191.304 and 233.333 | 104 and 95.8333 and 96.1539 and 114.286 and 112.5 | more avidly bound to and acetylated COX2 of APP/PS1 microglia | no significant differences were observed in neurons |  |
|  |  | Ab: Aβ 1–42 (Invitrogen, 03112) used to induce an AD environment in cells |  |  |  |  | 3.655 and 3.493 and 3.944 and 3.366 and 2.386 and 3.719 |
